Source: patent US4071680A, “5'-Deoxy-5-fluoropyrimidine nucleosides” (Hoffmann-La Roche Inc., priority 1976, dated 1978)
Where two headings read alike, the source gives them in different places.

How the values were obtained:
Sarcoma 180 Tumor = type: in vivo, albino mice
Experimental: (§1) All compounds were dissolved in water for administration to animals.
(§2) Small pieces of tumor (20-30mg) were implanted subcutaneously by trocar into the right inguinal region of 18-20 g albino mice. The fragments were obtained from donors bearing firm subcutaneous tumors implanted 7-10 days previously. Treatment was begun on the day of implantation and continued once daily for a total of 8 treatments. The animals were sacrificed 8 days after implantation and the tumors excised and weighed. The ratio of the average weight of the tumors from the untreated control group (C) divided by the average weight of the tumors from the treated group (T) was calculated. The percent inhibition of tumor growth was calculated from the formula:
(§3) % Inhibition = 100 (C-T)/C . The compound was considered to be active at a particular dose if % inhibition ≥ 50%.
(§4) Results obtained from experiments, utilizing compounds of the present invention and representative prior art compounds are summarized below in Table 1.
Effect of Pyrimidine Nucleosides Against Sarcoma 180 Tumor in Mice
(active doses are those which produce ≥50% tumor inhibition)

Yoshida sarcoma = conditions: Japanese Pat. No. 51-086481; cited from earlier work
Ehrlich Carcinoma = type: in vivo, albino mice
Experimental: as §1, §2, §3
The solid form of this tumor was produced by subcutaneous implantation of 0.5 ml of a 1-10 saline - diluted ascitic tumor cell suspensions derived from 18-20 g albino donor mice implanted 7-10 days previously. Treatment and evaluation procedures were identical to those used for Sarcoma 180.
as §4
Effect of pyrimidine Nucleosides Against Ehrlich Carcinoma in Mice

[1] = test system: L1210 leukemia cell cultures; conditions: Falco and Fox, J. Med. Chem. 11, 148 (1968); cited from earlier work
Burkitt's cell cultures = conditions: Falco and Fox, J. Med. Chem. 11, 148 (1968); cited from earlier work

| SMILES | Percent Inhibition of tumor growth (Sarcoma 180 Tumor; 100 mg/kg × 8, ip) [%] | Percent Inhibition of tumor growth (Sarcoma 180 Tumor; 200 mg/kg × 8, ip) [%] | Percent Inhibition of tumor growth (Sarcoma 180 Tumor; 200 mg/kg × 8, po) [%] | Percent Inhibition of tumor growth (Sarcoma 180 Tumor; 400 mg/kg × 8, ip) [%] | Percent Inhibition of tumor growth (Sarcoma 180 Tumor; 6.25 mg/kg × 8, po) [%] | Percent Inhibition of tumor growth (Sarcoma 180 Tumor; 12.5 mg/kg × 8, ip) [%] | Percent Inhibition of tumor growth (Sarcoma 180 Tumor; 12.5 mg/kg × 8, po) [%] | Percent Inhibition of tumor growth (Sarcoma 180 Tumor; 25 mg/kg × 8, ip) [%] | Percent Inhibition of tumor growth (Sarcoma 180 Tumor; 25 mg/kg × 8, po) [%] | Percent Inhibition of tumor growth (Sarcoma 180 Tumor; 50 mg/kg × 8, ip) [%] | Percent Inhibition of tumor growth (Sarcoma 180 Tumor; 50 mg/kg × 8, po) [%] | Percent Inhibition of tumor growth (Sarcoma 180 Tumor; 100 mg/kg × 8, po) [%] | Percent Inhibition of tumor growth (Sarcoma 180 Tumor; 400 mg/kg × 8, po) [%] | Percent Inhibition of tumor growth (Ehrlich Carcinoma; 25 mg/kg × 8, ip) [%] | Percent Inhibition of tumor growth (Ehrlich Carcinoma; 25 mg/kg × 8, po) [%] | Percent Inhibition of tumor growth (Ehrlich Carcinoma; 50 mg/kg × 8, ip) [%] | Percent Inhibition of tumor growth (Ehrlich Carcinoma; 50 mg/kg × 8, po) [%] | Percent Inhibition of tumor growth (Ehrlich Carcinoma; 100 mg/kg × 8, ip) [%] | Percent Inhibition of tumor growth (Ehrlich Carcinoma; 100 mg/kg × 8, po) [%] | Percent Inhibition of tumor growth (Ehrlich Carcinoma; 200 mg/kg × 8, ip) [%] | also measured |
| --- | --- | --- | --- | --- | --- | --- | --- | --- | --- | --- | --- | --- | --- | --- | --- | --- | --- | --- | --- | --- | --- |
| C[C@H]1O[C@@H](n2cc(F)c(=O)[nH]c2=O)C[C@@H]1O [2',5'-Dideoxy-5-Fluorouridine, reference compound] | 37 | 68 | 34 | 81 | – | – | – | – | – | – | – | – | – | – | – | – | – | – | – | – | inhibition of growth of Yoshida sarcoma (Yoshida sarcoma): inhibiting the growth of Yoshida sarcoma |
| C[C@H]1O[C@@H](n2cc(F)c(N)nc2=O)[C@H](O)[C@@H]1O [5'-Deoxy-5-Fluorocytidine] | 86 | 93 | 82 | 95 | 26 | 37 | 62 | 64 | 76 | 72 | 65 | 76 | 92 | 45 | 37 | 57 | 58 | 65 | 71 | 72 | Percent Inhibition of tumor growth (Ehrlich Carcinoma; 200 mg/kg × 8, po): 80%; Percent Inhibition of tumor growth (Ehrlich Carcinoma; 400 mg/kg × 8, ip): 91%; Percent Inhibition of tumor growth (Ehrlich Carcinoma; 400 mg/kg × 8, po): 95%; Percent Inhibition of tumor growth (Ehrlich Carcinoma; 800 mg/kg × 8, po): 99% |
| C[C@H]1O[C@@H](n2ccc(N)nc2=O)[C@@H](O)[C@@H]1O [1-(5'-deoxy-β-D-arabinofuranosyl) cytosine] | – | – | – | – | – | – | – | – | – | – | – | – | – | – | – | – | – | – | – | – | activity against L1210 leukemia cell cultures [1]: inactive; activity against Burkitt's cell cultures (Burkitt's cell cultures): inactive |
| C[C@H]1O[C@@H](n2ccc(=O)[nH]c2=O)[C@H](O)[C@@H]1O [5'-Deoxyuridine, reference compound] | 41 | 9 | – | – | – | – | – | – | – | – | – | – | – | – | – | – | – | – | – | – | – |
| C[C@H]1O[C@@H](n2cc(F)c(=O)[nH]c2=O)[C@H](O)[C@@H]1O [5'-Deoxy-5-Fluorouridine] | 88 | 88 | 90 | – | 68 | 43 | 73 | 67 | 75 | 89 | 80 | 83 | 90 | 43 | 27 | 59 | 56 | 71 | 70 | 86 | Percent Inhibition of tumor growth (Sarcoma 180 Tumor; 1.56 mg/kg × 8, po): 30%; Percent Inhibition of tumor growth (Sarcoma 180 Tumor; 3.12 mg/kg × 8, po): 51%; Percent Inhibition of tumor growth (Ehrlich Carcinoma; 200 mg/kg × 8, po): 90%; Percent Inhibition of tumor growth (Ehrlich Carcinoma; 400 mg/kg × 8, ip): 98%; Percent Inhibition of tumor growth (Ehrlich Carcinoma; 400 mg/kg × 8, po): 98%; Percent Inhibition of tumor growth (Ehrlich Carcinoma; 800 mg/kg × 8, po): 99% |
